From patent US20120202822A1, “COMBINATION” (priority 2009, published 2012) come the findings set out here.

This assay relates to seven Compound A resistant clones derived from the A375 PF11 melanoma cell line. Description: Cell Growth Inhibition Assay, summary over resistant clones. The class given is cell-based. As to conditions: Homo sapiens, A375P-F11, 72 h, 3 days, read-out: IC50s, Compound B alone, range over clones. The method, then:
Melanoma A375 PF11 line was derived from A375 (ATCC). 12R5-1, 12R5-3, 12R8-1, 12R8-3, 16R5-2, 16R6-3 and 16R6-4 are single cell clones derived from mixed populations of A375 PF11 cells that were selected to grow in Compound A to concentrations of 1200 and 1600 nM. All lines were cultured in RPMI 1640 medium containing 10% fetal bovine serum (FBS).
All cells were cultured for a minimum of 72 hours prior to cell plating. Cells were assayed in a 96-well tissue culture plate (NUNC 136102) of RPMI medium containing 10% FBS for all cells at 1,000 cells per well. Approximately 24 hours after plating, cells were exposed to ten, three-fold serial dilutions of compound or the combination of the two agents at a constant molar to molar ratio of 1:10 Compound A to Compound B in RPMI media containing 10% FBS. Cells were incubated in the presence of compounds for 3 days. ATP levels were determined by adding Cell Titer Glo® (Promega) according to the manufacturer's protocol. Briefly, Cell Titer Glo® was added each plate, incubated for 30 minutes then luminescent signal was read on the SpectraMax L plate reader with a 0.5 sec integration time.
Inhibition of cell growth was estimated after treatment with compound or combination of compounds for three days and comparing the signal to cells treated with vehicle (DMSO). Cell growth was calculated relative to vehicle (DMSO) treated control wells. […]

Turning to `COc1ncc(-c2ccc3nccc(-c4ccnnc4)c3c2)cc1NS(=O)(=O)c1ccc(F)cc1F` [Compound B, 2,4-difluoro-N-{2-(methyloxy)-5-[4-(4-pyridazinyl)-6-quinolinyl]-3-pyridinyl}benzenesulfonamide], the IC50 lay within 41 to 212 nM.
